Results reported in patent publication US8163870B2, “Channel forming peptides” (Kansas State University Research Foundation, priority 2000, dated 2012).

Key:
[1] = tested on: tight junction-associated proteins (actin, ZO-1, occludin) in MDCK monolayers; test: Confocal microscopy, immunolocalization of tight-junction associated proteins; assay type: cell-based, canine; settings: peptides 100 μM; EDTA 6 mM and hypotonic Ringer
Experimental: Confocal microscopy. Immunoreactivity to antibodies raised against tight-junction associated proteins was assessed by confocal microscopy (Zeiss, Thornwood, N.Y.). Samples for visualization were prepared from monolayers used in electrophysiological studies. After removal from Ussing chambers, monolayers were washed in Ringer solution and fixed overnight in 10% neutral buffered formalin. Monolayers were washed 3 times in PBS, permeabilized with 0.1% Triton X-100 in PBS, blocked with goat serum, and then exposed to primary antibody in a 1:500 dilution (rat anti-ZO-1, cat# MAB120, Chemicon, Temecula, Calif. or rabbit anti-occludin, cat.# 71-1500; Zymed, San Francisco, Calif.) for 1 hour at room temperature. After being washed 3 times in PBS, FITC-conjugated goat anti-rat (cat #AP136F, Chemicon) or goat anti-rabbit (cat #FI-1000; Vector Laboratories, Burlingame, Calif.) secondary antibodies were employed (1:1000 dilution) with exposure occurring for 1 hour at room temperature. TRITC-labeled phalloidin (0.1 mg/ml in methanol; Sigma Chemical Co.) was used for F-actin localization was applied concurrently with the secondary antibody. A KrAr laser was used to excite the fluorophores. Filter sets used for fluorescein were BP485/20 nm for excitation and BP515-540 nm for emission and for rhodamine BP530-585 nm for excitation and LP590 nm for emission.

MDCK monolayers = test: FITC-dextran permeability assay; assay type: cell-based, canine; settings: SEQ ID NO. 27 100 μM; EDTA 3 mM in hypotonic Ringer
Experimental: Confluent MDCK cell monolayers were washed once with Ringer solution and placed in one of three treatments containing FITC-conjugated dextran (Sigma Chemical Co.) in the apical compartment; 1, Ringer solution in the apical and basolateral compartments; 2, Ringer solution apical and basolateral with SEQ ID No. 27 (also referred to herein as NC-1059) (100 μM) in the apical solution; 3, EDTA (3 mM) in Ringer solution that had been diluted 1:1 with distilled water in both the apical and basolateral compartments. Monolayers are incubated at 37° C. for 60 minutes and the solution in the basolateral well sampled to quantify fluorescently labeled dextran. Monolayers are then washed with Ringer solution to remove peptide, EDTA, and dextran, placed in tissue culture medium and returned to the incubator for two days before the assay was conducted again.
FITC-dextran permeability assay. Epithelial permeability to uncharged solutes of various sizes was assessed with monolayers grown on Snapwell tissue culture inserts as described above. […] Monolayers were incubated at 37° C. for 60 minutes and the solution in the basolateral well was sampled to quantify fluorescently labeled dextran. […]

MDCK cells = assay type: cell-based, canine; settings: peptide at 500 μM
Excerpt: Cell culture: MDCK cells were a generous gift of Dr. Lawrence Sullivan (Kansas University Medical Center, Kansas City, Kans.). T84 cells were obtained from Dr. Daniel Devor (University of Pittsburgh, Pittsburgh, Pa.). MDCK and T84 cells were maintained with similar culture procedures. The culture medium was a 1:1 mixture of DMEM and Ham's F-12 (Gibco BRL, Grand Island, N.Y.) supplemented with 5% heat inactivated fetal bovine serum (BioWhittaker, Walkersville, Md.), and 1% penicillin and streptomycin (Gibco BRL). Cells were grown in plastic culture flasks in a humidified environment with 5% CO2 at 37° C. and passaged every 5-7 days. For Ussing chamber experiments, cells were plated on 1.13 cm^2 permeable supports (Snapwell™, Costar®, Cambridge, Mass.) at a density of approximately 1×10^6 cells/well and incubated in DMEM/F-12 supplemented with FBS and antibiotics (changed every other day) for 2-3 weeks prior to being mounted in modified Ussing flux chambers.
To form monolayers, the cells were plated onto the upper surface of a permeable membrane that forms the bottom of a plastic well. Two types were used. One was the Transwell™ insert (Costar®, Cambridge, Mass.) supported in a six-well tissue culture plate and the other type was the Snapwell™ (Costar®, Cambridge, Mass.). During incubation, the medium was replaced at 48-72 hour intervals. Confluent monolayers formed within 72 hours. Experiments were performed on the monolayers 6-9 days after the initial plating. Net fluid secretion responses were optimal after six days.
Solutions: Ringer solution was made fresh daily. The final concentration (in mM) was 120 NaCl, 25 NaHCO3 3.3 KH2HPO4, 0.8 K2HPO4, 1.2 MgCl2, 1.2 CaCl2, (290±2 mOsmol). All components of the Ringer solution were from Sigma (St. Louis, Mo.).
(§1) Epithelial electrical measurements: Transepithelial ion transport was evaluated in a modified Ussing chamber (Model DCV9, Navicyte, San Diego, Calif.). The Ussing chamber's fluid resistance compensation was completed in Ringer solution (see below). For electrical measurements cell monolayers were bathed in Ringer solution maintained at 37° C. and continuously bubbled with 5% CO2:95% O2. The transepithelial membrane potential (Vte) was clamped to zero and the transepithelial short circuit current (Isc), an indicator of net ion transport, was measured continuously with a voltage clamp apparatus (Model 558C, University of Iowa, Department of Bioengineering, Iowa City, Iowa). Data were digitally acquired at 1 Hz with a Macintosh computer (Apple Computer, Cuppertino, Calif.) using Aqknowledge software (ver. 3.2.6, BIOPAC Systems, Santa Barbara, Calif.) with an MP100A-CE interface.
as §1, with “Transepithelial” for “Epithelial electrical measurements: Transepithelial”, “(composition (in mM) was 120 NaCl, 25 NaHCO3 3.3 KH2HPO4, 0.8 K2HPO4, 1.2 MgCl2, 1.2 CaCl2).” for “(see below).”
MDCK cell monolayers (in the presence of 1-EBIO to maximize basolateral membrane K^+ conductance) were exposed on the apical aspect to escelating peptide concentrations. Maximal change in Isc (relative to the Isc prior to peptide exposure) was recorded following each increment in apical peptide concentration. […]

[2] = Chemical cross-linking (BS3) and SDS-PAGE, oligomeric state of peptide in solution; assay type: physicochemical; settings: SDS-PAGE
Experimental: Chemical cross-linking: In order to visualize the oligomeric state of the peptide in solution a chemical cross-linking protocol was developed. Calculated amounts of each peptide were weighted out and dissolved in 1 mL of distilled water to make 1 mM stock solutions. A 100 mM stock solution of the chemical crosslinking reagent Bis[Sulfosuccinimidyl]suberate, BS^3, (Pierce Chemical Co., Rockford, Ill.) was prepared in dimethyl sulfoxide (DMSO). […] Sample were allowed to sit at room temperature for 15 minutes. 1-6 μL of 100 mM BS^3 was then added to the previously prepared peptide such that the crosslinking reagent was present in 20-fold excess. The final volume for each reaction was 100 μL. […] Each sample was then vacuum dried. Later dry samples were re-dissolved in 60 μL of distilled water along with 60 μL of a 2×-tricine SDS sample buffer (Novex, San Diego). All samples were then boiled at 100° C. for 5 minutes. 5 μL aliquots of each SDS boiled sample was then loaded into separate lanes of pre-cast, 1.0 mm, 10 well, 10-20% tricine gels (Novex, San Diego). Pre-made Novex tricine-SDS buffer was used in the electrophoresis. The reference well contained 1 μL of MultiMark® multi-colored molecular weight standard (Novex, San Diego). The electrophoresis was carried out at a constant 110 Volts for 90 minutes. […]

cultured CF monolayers = test: Glutathione transport in cultured CF monolayers; assay type: cell-based

| Compound | distribution of actin, occludin and ZO-1 immunoreactivity [1] | permeation of 20 kDa FITC-dextran conjugate (MDCK monolayers) | Activity profile in MDCK cells (MDCK cells) | aggregation state in solution [2] | glutathione transport (cultured CF monolayers) |
| --- | --- | --- | --- | --- | --- |
| O=C(O)CN(CCN(CC(=O)O)CC(=O)O)CC(=O)O [EDTA] | profound changes in localization of the peri-junctional actin ring, as well as the distribution of ZO-1 | highest level of permeation | – | – | – |
| PARVGLGITTVLTMTTQSSGSRAKKKK (PARVGLGITTVLTMTTQSSGSRAKKKK; Modified Homo sapiens) [SEQ ID No. 2, reference compound] | – | – | 12.5 at 500 μM μA/cm2 | only trace amounts of aggregates higher than trimer | active but to a much lesser extent |
